# Test results published in publication PMC6409085, “Three odorant-binding proteins are involved in the behavioral response of Sogatella furcifera to rice plant volatiles” (PeerJ, 2019).
# “And” between values parts separate entries of the source, which are not always exact repeats. Equal values may be shown once.
# Columns and labels:
# Experiment in all cases: biochemical
# Assay type in all cases: binding
# SfurOBP1 = SfurOBP1 (Sogatella furcifera, UniProt V5T8N5); conditions: for Fluorescence competitive binding assay, fluorescence intensity: OBP1, three replicate columns
# SfurOBP1, sequence (V5T8N5 entry or part of it): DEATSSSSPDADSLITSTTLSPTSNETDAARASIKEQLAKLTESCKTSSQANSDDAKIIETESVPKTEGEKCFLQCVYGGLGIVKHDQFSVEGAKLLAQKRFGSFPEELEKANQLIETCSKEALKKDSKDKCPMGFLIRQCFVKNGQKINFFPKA
# Method: (§1) Thirty-six rice odorants ([He et al., 2014]; [Wang et al., 2017]) and 1-N-phenyl-naphthylamine (1-NPN) were purchased from Sigma-Aldrich (St Louis, MO, USA). These odorants and 1-NPN were dissolved in high-performance liquid chromatography (HPLC) purify grade methanol for 1.0 mM as work solution.
# (§2) Fluorescence competitive binding assays were performed on Tecan Spark 10M (Tecan Group Ltd., Männedorf, Switzerland) with the F96 Black ELIAS Plate (Sangon) ([Khuhro et al., 2017]; [Liu et al., 2017]). The solutions were excited at 337 nm and emission spectra were recorded between 390 and 490 nm. First, to test the binding constants of 1-NPN to the SfurOBPs, a 2.0 µM solution of protein in 50 mM Tris-HCl (pH = 7.4) was titrated with 1 mM 1-NPN to achieve virous concentrations. Next, the competitive binding of each odorant was measured using the 1-NPN as fluorescent reporter and odorant as competitor. The concentrations of protein and 1-NPN were both 2.0 µM, the odorant added after protein and 1-NPN added into the well of ELIAS Plate for 2 min. The final concentrations of each competitor were 2, 4, 6, 8, 10, 12, 14, 16, 18 and 20 µM. After 2 min of odorant added, the fluorescence intensity was measured and recorded. The volume of mixed solution in each well was maintained at 250 µL. Each interaction was performed in triplicates.
# (§3) GraphPad Prism 7.0 software (GraphPad Software, Inc., La Jolla, CA, USA) was used to calculated and generated the binding constants (K1−NPN) of 1-NPN to SfurOBPs and relative Scatchard plots ([Ban et al., 2003]; [Li et al., 2016]). Dissociation constant (Ki) of each odorant to SfurOBP was computed from the corresponding IC50 value (the half maximal inhibitory concentration), using the following equation: Ki=[IC50]/(1 + [1-NPN]/K1−NPN), where [1-NPN] is the free concentration of 1-NPN and K1−NPN is the dissociation constant of the complex protein/1-NPN.
# SfurOBP11 = SfurOBP11 (Sogatella furcifera, UniProt V5T6E3)
# SfurOBP11, sequence (V5T6E3 entry or part of it): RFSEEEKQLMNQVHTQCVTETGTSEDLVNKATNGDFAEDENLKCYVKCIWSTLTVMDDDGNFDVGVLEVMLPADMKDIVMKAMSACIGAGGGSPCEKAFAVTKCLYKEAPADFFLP
# Method: as §1, §2, §3
# SfurOBP2 = SfurOBP2 (Sogatella furcifera, UniProt V5T759)
# SfurOBP2, sequence (V5T759 entry or part of it): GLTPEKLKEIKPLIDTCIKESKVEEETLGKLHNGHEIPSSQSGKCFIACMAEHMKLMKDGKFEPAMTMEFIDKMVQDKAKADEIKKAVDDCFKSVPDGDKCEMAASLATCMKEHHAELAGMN
# Method: as §1, §2, §3
# SfurOBP3 = SfurOBP3 (Sogatella furcifera, UniProt V5T818); conditions: for Fluorescence competitive binding assay, fluorescence intensity: OBP3, three replicate columns
# SfurOBP3, sequence (V5T818 entry or part of it): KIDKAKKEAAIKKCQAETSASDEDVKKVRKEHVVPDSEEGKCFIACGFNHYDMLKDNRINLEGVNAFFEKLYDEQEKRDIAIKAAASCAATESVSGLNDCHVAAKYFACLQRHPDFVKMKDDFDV
# Method: as §1, §2, §3
compound,measurement,setting,value
C[C@@H]1CC[C@H]2C(C)(C)[C@H]3C[C@@]12CC[C@@]3(C)O [cedrol],IC50,SfurOBP1,> 20 µM
same,"Fluorescence competitive binding assay, fluorescence intensity",SfurOBP1; ligand concentration 2 (μM),6995 and 7876 and 8408
same,"Fluorescence competitive binding assay, fluorescence intensity",SfurOBP1; ligand concentration 4 (μM),8498 and 11154 and 11504
same,"Fluorescence competitive binding assay, fluorescence intensity",SfurOBP1; ligand concentration 6 (μM),10601 and 9220 and 11976
same,"Fluorescence competitive binding assay, fluorescence intensity",SfurOBP1; ligand concentration 8 (μM),9019 and 11150 and 9994
same,"Fluorescence competitive binding assay, fluorescence intensity",SfurOBP1; ligand concentration 10 (μM),10329 and 10734 and 11532
same,"Fluorescence competitive binding assay, fluorescence intensity",SfurOBP1; ligand concentration 12 (μM),12388 and 11952 and 13123
same,"Fluorescence competitive binding assay, fluorescence intensity",SfurOBP1; ligand concentration 14 (μM),12489 and 14285 and 14049
same,"Fluorescence competitive binding assay, fluorescence intensity",SfurOBP1; ligand concentration 16 (μM),13812 and 12078 and 13153
same,"Fluorescence competitive binding assay, fluorescence intensity",SfurOBP1; ligand concentration 18 (μM),15290 and 17034 and 15790
same,"Fluorescence competitive binding assay, fluorescence intensity",SfurOBP1; ligand concentration 20 (μM),14831 and 15054 and 15511
same,IC50,SfurOBP11,> 20 µM
same,"Fluorescence intensity, fluorescence competitive binding assay, OBP11","SfurOBP11; ligand concentration 2, replicate 1",32664
same,"Fluorescence intensity, fluorescence competitive binding assay, OBP11","SfurOBP11; ligand concentration 2, replicate 2",32061
same,"Fluorescence intensity, fluorescence competitive binding assay, OBP11","SfurOBP11; ligand concentration 2, replicate 3",32191
same,"Fluorescence intensity, fluorescence competitive binding assay, OBP11","SfurOBP11; ligand concentration 4, replicate 1",30812
same,"Fluorescence intensity, fluorescence competitive binding assay, OBP11","SfurOBP11; ligand concentration 4, replicate 2",37566
same,"Fluorescence intensity, fluorescence competitive binding assay, OBP11","SfurOBP11; ligand concentration 4, replicate 3",35078
same,"Fluorescence intensity, fluorescence competitive binding assay, OBP11","SfurOBP11; ligand concentration 6, replicate 1",34551
same,"Fluorescence intensity, fluorescence competitive binding assay, OBP11","SfurOBP11; ligand concentration 6, replicate 2",34452
same,"Fluorescence intensity, fluorescence competitive binding assay, OBP11","SfurOBP11; ligand concentration 6, replicate 3",36785
same,"Fluorescence intensity, fluorescence competitive binding assay, OBP11","SfurOBP11; ligand concentration 8, replicate 1",32906
same,"Fluorescence intensity, fluorescence competitive binding assay, OBP11","SfurOBP11; ligand concentration 8, replicate 2",35488
same,"Fluorescence intensity, fluorescence competitive binding assay, OBP11","SfurOBP11; ligand concentration 8, replicate 3",34811
same,"Fluorescence intensity, fluorescence competitive binding assay, OBP11","SfurOBP11; ligand concentration 10, replicate 1",34631
same,"Fluorescence intensity, fluorescence competitive binding assay, OBP11","SfurOBP11; ligand concentration 10, replicate 2",35572
same,"Fluorescence intensity, fluorescence competitive binding assay, OBP11","SfurOBP11; ligand concentration 10, replicate 3",36351
same,"Fluorescence intensity, fluorescence competitive binding assay, OBP11","SfurOBP11; ligand concentration 12, replicate 1",32777
same,"Fluorescence intensity, fluorescence competitive binding assay, OBP11","SfurOBP11; ligand concentration 12, replicate 2",37222
same,"Fluorescence intensity, fluorescence competitive binding assay, OBP11","SfurOBP11; ligand concentration 12, replicate 3",35927
same,"Fluorescence intensity, fluorescence competitive binding assay, OBP11","SfurOBP11; ligand concentration 14, replicate 1",33134
same,"Fluorescence intensity, fluorescence competitive binding assay, OBP11","SfurOBP11; ligand concentration 14, replicate 2",35392
same,"Fluorescence intensity, fluorescence competitive binding assay, OBP11","SfurOBP11; ligand concentration 14, replicate 3",35226
same,"Fluorescence intensity, fluorescence competitive binding assay, OBP11","SfurOBP11; ligand concentration 16, replicate 1",32933
same,"Fluorescence intensity, fluorescence competitive binding assay, OBP11","SfurOBP11; ligand concentration 16, replicate 2",34203
same,"Fluorescence intensity, fluorescence competitive binding assay, OBP11","SfurOBP11; ligand concentration 16, replicate 3",33568
same,"Fluorescence intensity, fluorescence competitive binding assay, OBP11","SfurOBP11; ligand concentration 18, replicate 1",37284
same,"Fluorescence intensity, fluorescence competitive binding assay, OBP11","SfurOBP11; ligand concentration 18, replicate 2",38034
same,"Fluorescence intensity, fluorescence competitive binding assay, OBP11","SfurOBP11; ligand concentration 18, replicate 3",36646
same,"Fluorescence intensity, fluorescence competitive binding assay, OBP11","SfurOBP11; ligand concentration 20, replicate 1",39273
same,"Fluorescence intensity, fluorescence competitive binding assay, OBP11","SfurOBP11; ligand concentration 20, replicate 2",38740
same,"Fluorescence intensity, fluorescence competitive binding assay, OBP11","SfurOBP11; ligand concentration 20, replicate 3",33015
same,IC50,SfurOBP2,> 20 µM
same,"Fluorescence competitive binding assay, OBP2 (raw fluorescence reading)","SfurOBP2; ligand concentration 2 (unit not given), replicate column 1 of 3",24497
same,"Fluorescence competitive binding assay, OBP2 (raw fluorescence reading)","SfurOBP2; ligand concentration 2 (unit not given), replicate column 2 of 3",23498
same,"Fluorescence competitive binding assay, OBP2 (raw fluorescence reading)","SfurOBP2; ligand concentration 2 (unit not given), replicate column 3 of 3",23591
same,"Fluorescence competitive binding assay, OBP2 (raw fluorescence reading)","SfurOBP2; ligand concentration 4 (unit not given), replicate column 1 of 3",27085
same,"Fluorescence competitive binding assay, OBP2 (raw fluorescence reading)","SfurOBP2; ligand concentration 4 (unit not given), replicate column 2 of 3",27496
same,"Fluorescence competitive binding assay, OBP2 (raw fluorescence reading)","SfurOBP2; ligand concentration 4 (unit not given), replicate column 3 of 3",25040
same,"Fluorescence competitive binding assay, OBP2 (raw fluorescence reading)","SfurOBP2; ligand concentration 6 (unit not given), replicate column 1 of 3",30107
same,"Fluorescence competitive binding assay, OBP2 (raw fluorescence reading)","SfurOBP2; ligand concentration 6 (unit not given), replicate column 2 of 3",26969
same,"Fluorescence competitive binding assay, OBP2 (raw fluorescence reading)","SfurOBP2; ligand concentration 6 (unit not given), replicate column 3 of 3",25579
same,"Fluorescence competitive binding assay, OBP2 (raw fluorescence reading)","SfurOBP2; ligand concentration 8 (unit not given), replicate column 1 of 3",26802
same,"Fluorescence competitive binding assay, OBP2 (raw fluorescence reading)","SfurOBP2; ligand concentration 8 (unit not given), replicate column 2 of 3",26446
same,"Fluorescence competitive binding assay, OBP2 (raw fluorescence reading)","SfurOBP2; ligand concentration 8 (unit not given), replicate column 3 of 3",25979
same,"Fluorescence competitive binding assay, OBP2 (raw fluorescence reading)","SfurOBP2; ligand concentration 10 (unit not given), replicate column 1 of 3",26972
same,"Fluorescence competitive binding assay, OBP2 (raw fluorescence reading)","SfurOBP2; ligand concentration 10 (unit not given), replicate column 2 of 3",25158
same,"Fluorescence competitive binding assay, OBP2 (raw fluorescence reading)","SfurOBP2; ligand concentration 10 (unit not given), replicate column 3 of 3",26522
same,"Fluorescence competitive binding assay, OBP2 (raw fluorescence reading)","SfurOBP2; ligand concentration 12 (unit not given), replicate column 1 of 3",24638
same,"Fluorescence competitive binding assay, OBP2 (raw fluorescence reading)","SfurOBP2; ligand concentration 12 (unit not given), replicate column 2 of 3",24959
same,"Fluorescence competitive binding assay, OBP2 (raw fluorescence reading)","SfurOBP2; ligand concentration 12 (unit not given), replicate column 3 of 3",25011
same,"Fluorescence competitive binding assay, OBP2 (raw fluorescence reading)","SfurOBP2; ligand concentration 14 (unit not given), replicate column 1 of 3",25754
same,"Fluorescence competitive binding assay, OBP2 (raw fluorescence reading)","SfurOBP2; ligand concentration 14 (unit not given), replicate column 2 of 3",26325
same,"Fluorescence competitive binding assay, OBP2 (raw fluorescence reading)","SfurOBP2; ligand concentration 14 (unit not given), replicate column 3 of 3",24806
same,"Fluorescence competitive binding assay, OBP2 (raw fluorescence reading)","SfurOBP2; ligand concentration 16 (unit not given), replicate column 1 of 3",22837
same,"Fluorescence competitive binding assay, OBP2 (raw fluorescence reading)","SfurOBP2; ligand concentration 16 (unit not given), replicate column 2 of 3",21773
same,"Fluorescence competitive binding assay, OBP2 (raw fluorescence reading)","SfurOBP2; ligand concentration 16 (unit not given), replicate column 3 of 3",21108
same,"Fluorescence competitive binding assay, OBP2 (raw fluorescence reading)","SfurOBP2; ligand concentration 18 (unit not given), replicate column 1 of 3",27379
same,"Fluorescence competitive binding assay, OBP2 (raw fluorescence reading)","SfurOBP2; ligand concentration 18 (unit not given), replicate column 2 of 3",25169
same,"Fluorescence competitive binding assay, OBP2 (raw fluorescence reading)","SfurOBP2; ligand concentration 18 (unit not given), replicate column 3 of 3",23516
same,"Fluorescence competitive binding assay, OBP2 (raw fluorescence reading)","SfurOBP2; ligand concentration 20 (unit not given), replicate column 1 of 3",25091
same,"Fluorescence competitive binding assay, OBP2 (raw fluorescence reading)","SfurOBP2; ligand concentration 20 (unit not given), replicate column 2 of 3",24420
same,"Fluorescence competitive binding assay, OBP2 (raw fluorescence reading)","SfurOBP2; ligand concentration 20 (unit not given), replicate column 3 of 3",23245
same,IC50,SfurOBP3,> 20 µM
same,"Fluorescence competitive binding assay, fluorescence intensity",SfurOBP3; ligand concentration 2,55754 and 49842 and 56462
same,"Fluorescence competitive binding assay, fluorescence intensity",SfurOBP3; ligand concentration 4,68851 and 68657 and 83563
same,"Fluorescence competitive binding assay, fluorescence intensity",SfurOBP3; ligand concentration 6,77285 and 86181 and 100023
same,"Fluorescence competitive binding assay, fluorescence intensity",SfurOBP3; ligand concentration 8,86444 and 86480 and 86528
same,"Fluorescence competitive binding assay, fluorescence intensity",SfurOBP3; ligand concentration 10,98647 and 101699 and 124352
same,"Fluorescence competitive binding assay, fluorescence intensity",SfurOBP3; ligand concentration 12,107439 and 105795 and 90567
same,"Fluorescence competitive binding assay, fluorescence intensity",SfurOBP3; ligand concentration 14,124768 and 101594 and 116276
same,"Fluorescence competitive binding assay, fluorescence intensity",SfurOBP3; ligand concentration 16,81951 and 95706 and 104699
same,"Fluorescence competitive binding assay, fluorescence intensity",SfurOBP3; ligand concentration 18,130597 and 114825 and 98253
same,"Fluorescence competitive binding assay, fluorescence intensity",SfurOBP3; ligand concentration 20,111183 and 106493 and 98789
